Data as given in US12227480B1 (priority 2023, dated 2025).

Test system: Mycobacterium tuberculosis H37Rv (ATCC: 25177)
Test: Resazurin Microplate Assay (REMA), anti-tubercular activity, H37Rv strain
Assay type: cell-based
Conditions: 192 h, read-out: Anti-tubercular activity against Mycobacterium tuberculosis (MIC), H37Rv

**Q.** Which MIC does the source give for `Cc1cc[n+](CC(=O)c2ccc(F)cc2)cc1.[Br-]` [Compound 3d, 1-(2-(4-Fluorophenyl)-2-oxoethyl)-4-methylpyridin-1-ium bromide] here?
**A.** The MIC was 8 µg/mL.
